From publication PMC6028563, “Probing Substituents in the 1- and 3-Position: Tetrahydropyrazino-Annelated Water-Soluble Xanthine Derivatives as Multi-Target Drugs With Potent Adenosine Receptor Antagonistic Activity” (Frontiers in Chemistry, 2018)
Converted amounts (≈) assume the structure as drawn. Read-outs that look alike come from different tables or passages of the source. Each block holds one molecule with its values, some of them ahead of it.

Tests used:
[1] = molecular target: T1, human A1 AR (Homo sapiens, UniProt P30542); conditions: human (h); Figure 3 and introduction; ref Drabczynska et al., 2007; Koch et al., 2013; Brunschweiger et al., 2014, 2016; read-out: A1 (Ki); cited from earlier work
T1 construct: expressed in transfected cells; host or cells: CHO cells
T1 sequence (P30542 1-326): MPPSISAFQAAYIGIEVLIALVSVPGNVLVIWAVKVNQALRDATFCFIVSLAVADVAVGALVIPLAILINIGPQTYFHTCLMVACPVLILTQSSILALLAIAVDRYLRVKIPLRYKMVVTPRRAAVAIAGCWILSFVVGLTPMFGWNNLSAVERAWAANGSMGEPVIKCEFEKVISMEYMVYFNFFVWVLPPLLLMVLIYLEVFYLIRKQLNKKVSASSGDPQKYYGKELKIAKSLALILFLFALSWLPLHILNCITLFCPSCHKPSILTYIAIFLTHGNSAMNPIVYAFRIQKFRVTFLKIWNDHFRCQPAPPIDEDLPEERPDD

[2] = molecular target: T2, human A2A AR (Homo sapiens, UniProt P29274); conditions: human (h); Figure 3 and introduction; ref Drabczynska et al., 2007; Koch et al., 2013; Brunschweiger et al., 2014, 2016; cited from earlier work
T2 construct: expressed in transfected cells; host or cells: CHO cells

[3] = molecular target: T3, recombinant human MAO-B (Homo sapiens, UniProt P27338); conditions: human (h); Figure 2 and introduction; ref Chen et al., 2002; Pretorius et al., 2008; Wang et al., 2017; Stössel et al., 2013; cited from earlier work
T3 construct: purchased Sigma-Aldrich M7441; host or cells: baculovirus-infected insect cells
T3 sequence (P27338 1-520): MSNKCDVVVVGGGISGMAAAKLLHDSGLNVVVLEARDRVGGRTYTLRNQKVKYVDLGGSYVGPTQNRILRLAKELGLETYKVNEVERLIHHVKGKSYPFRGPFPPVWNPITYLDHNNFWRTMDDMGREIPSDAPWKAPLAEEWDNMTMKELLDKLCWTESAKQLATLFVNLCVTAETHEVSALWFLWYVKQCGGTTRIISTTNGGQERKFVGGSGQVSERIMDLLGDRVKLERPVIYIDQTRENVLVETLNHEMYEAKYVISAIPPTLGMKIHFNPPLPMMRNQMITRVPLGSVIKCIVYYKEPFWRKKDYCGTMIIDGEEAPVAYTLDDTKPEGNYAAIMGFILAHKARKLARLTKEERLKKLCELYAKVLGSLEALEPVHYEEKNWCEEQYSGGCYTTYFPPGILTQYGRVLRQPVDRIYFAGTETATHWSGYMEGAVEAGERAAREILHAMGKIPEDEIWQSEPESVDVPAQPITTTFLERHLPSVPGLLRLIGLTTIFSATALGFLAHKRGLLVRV

[4] = molecular target: T1, human A1 AR; assay: Radioligand binding assay at human A1 AR vs. [^3H]CCPA; conditions: human (h); CHO cell membranes; n = 3
How it was run: (§1)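 Source of receptor: rat brain cortex (A1), rat brain striatum (A2A), recombinant CHO cell membranes (human subtypes). Binding only.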

[5] = molecular target: T4, rat A1 AR (Rattus norvegicus, UniProt P25099); assay: Radioligand binding assay at rat A1 AR (rat brain cortex) vs. [^3H]CCPA; conditions: rat (r); rat brain cortex; n = 3
T4 construct: A1 ARs of rat brain cortical membrane; from tissue; host or cells: rat brain cortex membranes
T4 sequence (P25099 1-326): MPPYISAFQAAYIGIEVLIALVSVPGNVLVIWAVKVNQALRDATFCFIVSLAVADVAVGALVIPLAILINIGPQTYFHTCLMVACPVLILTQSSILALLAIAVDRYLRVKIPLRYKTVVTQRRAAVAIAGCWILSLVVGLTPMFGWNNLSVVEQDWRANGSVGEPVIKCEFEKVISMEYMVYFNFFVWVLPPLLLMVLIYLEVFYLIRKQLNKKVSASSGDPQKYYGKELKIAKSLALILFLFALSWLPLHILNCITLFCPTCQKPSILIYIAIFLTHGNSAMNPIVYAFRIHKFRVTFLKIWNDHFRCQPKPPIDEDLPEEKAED
How it was run: as §1

[6] = molecular target: T2, human A2A AR; assay: Radioligand binding assay at human A2A AR vs. [^3H]MSX-2
Protocol: Membrane preparations and radioligand binding assays at rat A1 (rat brain cortex) and rat A2A ARs (rat brain striatum) were performed as previously described (Ozola et al., [2003]; Alnouri et al., [2015]). For assays at human A1, A2A, A2B, and A3 ARs, CHO cell membranes expressing one of the human AR subtypes were used as previously reported (Klotz et al., [1998]; Alnouri et al., [2015]; De Filippo et al., [2016]).
The synthesized tetrahydropyrazino[2,1-f ]purinediones 13–20 were evaluated in radioligand binding assays for their affinity to A1 ARs of rat brain cortical membrane and to A2A ARs of rat brain striatal membrane preparations. Selected compounds were further investigated for their affinity to human A1 and A2A ARs recombinantly expressed in Chinese hamster ovary (CHO) cells. All compounds were additionally investigated for their affinity to human A2B and A3 ARs recombinantly expressed in CHO cells to determine their AR subtype selectivity. […] It is well known that all xanthine derivatives lacking a ribose moiety, including tricyclic compounds, can only block ARs, but never act as AR agonists; therefore, additional functional studies were not required. […] Potent MAO-B inhibitors were additionally investigated for inhibition of human MAO-A to assess their selectivity. Results are presented in Tables 1–6, and data of standard ligands are included for comparison.

[7] = molecular target: T5, rat A2A AR (Rattus norvegicus, UniProt P30543); assay: Radioligand binding assay at rat A2A AR (rat brain striatum) vs. [^3H]MSX-2; conditions: rat (r); for % inhibition of radioligand binding at indicated concentration, A2A vs. [^3H]MSX-2: at 1,000 nM; for Ki: rat brain striatum, n = 3, read-out: Ki ± SEM, A2A vs. [^3H]MSX-2
T5 construct: A2A ARs of rat brain striatal membrane preparations; from tissue; host or cells: rat brain striatum membranes
How it was run: as §1

[8] = molecular target: T6, human A2B AR (Homo sapiens, UniProt P29275); assay: Radioligand binding assay at human A2B AR vs. [^3H]PSB-603
T6 construct: expressed in transfected cells; host or cells: CHO cells
T6 sequence (P29275 1-332): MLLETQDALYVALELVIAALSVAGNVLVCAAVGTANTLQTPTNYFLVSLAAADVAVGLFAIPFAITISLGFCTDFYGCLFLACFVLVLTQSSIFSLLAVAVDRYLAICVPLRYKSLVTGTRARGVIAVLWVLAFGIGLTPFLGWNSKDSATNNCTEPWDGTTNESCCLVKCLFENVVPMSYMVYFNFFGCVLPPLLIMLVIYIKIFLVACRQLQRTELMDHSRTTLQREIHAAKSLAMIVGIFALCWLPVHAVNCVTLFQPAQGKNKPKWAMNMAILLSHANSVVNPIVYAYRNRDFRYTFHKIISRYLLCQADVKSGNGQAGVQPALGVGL
How it was run: as §1

[9] = molecular target: T7, recombinant human MAO-A (Homo sapiens, UniProt P21397); assay: Monoamine oxidase assay (Amplex Red), MAO-A; format: biochemical; conditions: for inhibition at 10 µM: at 10,000 nM, read-out: % inhibition at indicated concentration, Human MAO-A; for IC50: n = 3, read-out: IC50 ± SEM, Human MAO-A
T7 construct: purchased Sigma-Aldrich M7316; host or cells: baculovirus-infected insect cells
T7 sequence (P21397 1-527): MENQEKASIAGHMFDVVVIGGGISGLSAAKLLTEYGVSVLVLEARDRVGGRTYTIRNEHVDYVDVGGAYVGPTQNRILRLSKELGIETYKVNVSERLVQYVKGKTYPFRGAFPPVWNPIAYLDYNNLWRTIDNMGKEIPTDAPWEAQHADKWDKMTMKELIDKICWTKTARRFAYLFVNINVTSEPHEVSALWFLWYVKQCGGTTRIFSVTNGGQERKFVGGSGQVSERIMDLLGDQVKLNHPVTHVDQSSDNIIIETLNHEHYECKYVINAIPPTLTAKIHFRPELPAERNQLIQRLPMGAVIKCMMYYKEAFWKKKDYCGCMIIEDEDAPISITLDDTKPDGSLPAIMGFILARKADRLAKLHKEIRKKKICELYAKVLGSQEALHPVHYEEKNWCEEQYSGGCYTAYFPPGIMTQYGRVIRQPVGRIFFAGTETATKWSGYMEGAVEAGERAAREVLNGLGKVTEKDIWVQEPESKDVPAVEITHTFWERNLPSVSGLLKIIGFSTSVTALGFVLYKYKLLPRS
How it was run: (§2)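 Inhibition was measured with an Amplex Red monoamine oxidase assay, using human MAO-A and MAO-B produced recombinantly in baculovirus-infected insect cells. For rat MAO-B, liver mitochondria-enriched fractions from male Sprague Dawley rats served as enzyme source.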

[10] = molecular target: T3, recombinant human MAO-B; assay: Monoamine oxidase assay (Amplex Red), MAO-B; format: biochemical; conditions: for inhibition at 10 µM: at 10,000 nM (10 μM), read-out: % inhibition at indicated concentration, Human MAO-B; for IC50: n = 3, read-out: IC50 ± SEM, Human MAO-B
How it was run: as §2

[11] = molecular target: T8, human A3 AR (Homo sapiens, UniProt P0DMS8); assay: Radioligand binding assay at human A3 AR vs. [^3H]PSB-11; conditions: CHO cell membranes, n = 2 (n = 3 where marked a), read-out: Ki ± SEM, A3 vs. [^3H]PSB-11
T8 construct: expressed in transfected cells; host or cells: CHO cells
T8 sequence (P0DMS8 1-318): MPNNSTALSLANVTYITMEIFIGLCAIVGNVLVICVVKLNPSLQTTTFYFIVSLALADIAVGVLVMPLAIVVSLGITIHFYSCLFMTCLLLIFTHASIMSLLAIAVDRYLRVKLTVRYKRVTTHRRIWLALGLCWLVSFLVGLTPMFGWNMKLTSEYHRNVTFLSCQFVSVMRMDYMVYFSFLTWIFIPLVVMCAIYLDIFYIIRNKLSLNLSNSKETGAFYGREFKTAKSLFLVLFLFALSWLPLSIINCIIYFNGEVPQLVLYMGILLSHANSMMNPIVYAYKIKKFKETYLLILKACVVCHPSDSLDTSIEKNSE
How it was run: as §1

[12] = Thermodynamic solubility measurements; format: physicochemical; conditions: thermodynamic from solid, thermodynamic solubility
Excerpt: This is expected to facilitate dissolution in the stomach. Depending on the substitution pattern they may also be well soluble at higher pH values (Brunschweiger et al., [2014]). In the present study we measured thermodynamic solubility of only very few compounds exemplarily (14a-e, 14g, 15f,g) and confirmed their high solubility at pH 1 (see Table S1 in Supplementary Material). Most of these compounds were still soluble at pH 7.4. The best soluble derivative was the 3-ethyl-1-methyl-8-m-fluorobenzyl derivative 14g with solubilities of >1.5 g/L (4.2 mM) at pH 1, 50 mg/L (0.14 mM) at pH 4, and 40 mg/L ([…]) at pH 7.4.
Table S1. Solubility of selected compounds at three different pH values (in mg/mL).a
Compound pH 1 pH 4 pH 7.4
adetermined by thermodynamic solubility measurements.

T5 sequence (P30543 whole entry): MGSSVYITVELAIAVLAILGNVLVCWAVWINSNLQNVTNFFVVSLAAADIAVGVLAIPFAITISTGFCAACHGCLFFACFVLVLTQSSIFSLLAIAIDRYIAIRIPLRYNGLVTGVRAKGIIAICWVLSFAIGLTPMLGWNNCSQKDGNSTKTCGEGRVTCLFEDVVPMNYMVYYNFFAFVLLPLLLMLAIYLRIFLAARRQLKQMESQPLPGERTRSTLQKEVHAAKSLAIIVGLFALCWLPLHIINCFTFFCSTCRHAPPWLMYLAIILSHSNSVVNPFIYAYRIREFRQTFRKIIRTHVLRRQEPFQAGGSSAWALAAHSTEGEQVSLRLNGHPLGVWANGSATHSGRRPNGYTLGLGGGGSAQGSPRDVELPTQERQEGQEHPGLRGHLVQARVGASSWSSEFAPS
T2 sequence (P29274 whole entry): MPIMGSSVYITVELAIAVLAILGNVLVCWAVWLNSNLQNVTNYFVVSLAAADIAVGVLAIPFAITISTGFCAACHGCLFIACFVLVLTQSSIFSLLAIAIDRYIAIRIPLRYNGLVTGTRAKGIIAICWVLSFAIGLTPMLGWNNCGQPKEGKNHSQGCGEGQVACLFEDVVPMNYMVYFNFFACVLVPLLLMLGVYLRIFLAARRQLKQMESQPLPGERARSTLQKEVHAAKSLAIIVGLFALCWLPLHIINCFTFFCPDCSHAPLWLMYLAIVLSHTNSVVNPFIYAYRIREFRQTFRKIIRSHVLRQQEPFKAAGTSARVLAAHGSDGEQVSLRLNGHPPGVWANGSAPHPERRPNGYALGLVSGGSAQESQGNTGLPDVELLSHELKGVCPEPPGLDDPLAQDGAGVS

Molecule: 1,3-Dimethyl-6,7,8,9-tetrahydropyrazino[2,1-f ]purine-2,4(1H,3H)-dione [Compound 10c]
Ki [1]: 0.116 µM
Ki [2]: 0.094 µM

Molecule: Cn1c(=O)c2c(nc(/C=C/C=C/c3cccc(Br)c3)n2C)n(C)c1=O [Compound 4]
IC50 [3]: 0.0379 µM

Molecule: Cn1c(=O)c2c(nc3n2CCCN3Cc2ccccc2)n(C)c1=O [Compound 9a]
Ki [1]: 0.249 µM
Ki [2]: 0.253 µM

Molecule: CCn1c(=O)c2c(nc3n2CCN(Cc2ccccc2C(F)(F)F)C3)n(CC)c1=O [Compound 15f, 1,3-diethyl-8-(2-(trifluoromethyl)benzyl)-6,7,8,9-tetrahydropyrazino[2,1-f]purine-2,4(1H,3H)-dione]
Ki [4]: 0.129 ± 0.009 µM
Ki [5]: 0.0514 ± 0.0147 µM
% inhibition of radioligand binding at indicated concentration, A2A vs. [^3H]MSX-2 [7]: 32%
Ki [7]: > 1 µM
Ki ([8]; CHO cell membranes, n = 2 (n = 3 where marked a), read-out: Ki ± SEM, A2B vs. [^3H]PSB-603): > 1 µM
inhibition at 1 µM ([8]; at 1,000 nM, read-out: % inhibition of radioligand binding at indicated concentration, A2B vs. [^3H]PSB-603): 2%
Ki [11]: 4.06 µM
inhibition at 10 µM [10]: 41%
IC50 [10]: > 10 µM
solubility ([12]; aqueous buffer, pH 4, read-out: Solubility, pH 4): 0.9 µg/mL (≈ 2.14 µM)
solubility ([12]; aqueous buffer, pH 7.4, read-out: Solubility, pH 7.4): 0.7 µg/mL (≈ 1.66 µM)
solubility ([12]; simulated gastric fluid, pH 1, read-out: Solubility, pH 1): 300 µg/mL (≈ 712 µM)

The next lines start with the values.

Ki [4]: 0.121 ± 0.045 µM
Ki [5]: 0.053 ± 0.0058 µM
% inhibition of radioligand binding at indicated concentration, A2A vs. [^3H]MSX-2 ([6]; at 1,000 nM): 8%
% inhibition of radioligand binding at indicated concentration, A2A vs. [^3H]MSX-2 [7]: 33%
Ki [7]: > 1 µM
inhibition at 10 µM ([8]; at 10,000 nM, read-out: % inhibition of radioligand binding at indicated concentration, A2B vs. [^3H]PSB-603): 36%
inhibition at 10 µM [9]: 20%
IC50 [9]: > 10 µM
inhibition at 10 µM [10]: > 50%
IC50 [10]: ≤ 10 µM
Molecule: CCn1c(=O)c2c(nc3n2CCN(Cc2cccc(Cl)c2)C3)n(C)c1=O [Compound 14i, 8-(3-chlorobenzyl)-3-ethyl-1-methyl-6,7,8,9-tetrahydropyrazino[2,1-f]purine-2,4(1H,3H)-dione]

Ki [4]: 0.475 ± 0.047 µM
Ki [5]: 0.152 ± 0.012 µM
Ki ([6]; CHO cell membranes, n = 3, read-out: Ki ± SEM, A2A vs. [^3H]MSX-2): 2.11 µM
Ki [7]: 0.675 ± 0.104 µM
Ki [11]: 12.7 µM
inhibition at 10 µM [9]: 9%
IC50 [9]: > 10 µM
IC50 [10]: 2.91 µM
Molecule: CCCn1c(=O)c2c(nc3n2CCN(Cc2ccc(Cl)c(Cl)c2)C3)n(C)c1=O [Compound 18]
